Data: patent US9944602B2, “Piperidinone herbicides” (E. I. DU PONT DE NEMOURS AND COMPANY, priority 2014, dated 2018)

Key:
Format in all cases: in vivo
[1] = test system: barnyardgrass (Echinochloa crus-galli); assay: Test A postemergence barnyardgrass; details: 0 to 100 scale, 0 is no effect, 100 is complete control
Outline: (§1)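 Directed soil spray at planting gives preemergence data; foliar application to one- to two-leaf plants gives postemergence data. Response is visual injury relative to untreated controls about 10 d after treatment, scored 0–100.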

[2] = test system: ryegrass, Italian (Italian ryegrass, Lolium multiflorum); assay: Test A postemergence ryegrass, Italian; details: 0 to 100 scale, 0 is no effect, 100 is complete control
Outline: as §1

corn (Zea mays) = assay: Test A postemergence corn; details: 0 to 100 scale, 0 is no effect, 100 is complete control
Outline: as §1

[3] = test system: ducksalad (Heteranthera limosa); assay: Test C flooded paddy test ducksalad; details: Table C, Flood, scale 0 to 100
From the text: (§2) Plant species in the flooded paddy test consisted of rice (Oryza sativa), sedge, umbrella (small-flower umbrella sedge, Cyperus difformis), ducksalad (Heteranthera limosa), and barnyardgrass (Echinochloa crus-galli) grown to the 2-leaf stage for testing. At time of treatment, test pots were flooded to 3 cm above the soil surface, treated by application of test compounds directly to the paddy water, and then maintained at that water depth for the duration of the test. Treated plants and controls were maintained in a greenhouse for 13 to 15 d, after which time all species were compared to controls and visually evaluated. Plant response ratings, summarized in Table C, are based on a scale of 0 to 100 where 0 is no effect and 100 is complete control. A dash (-) response means no test result.

[4] = test system: foxtail, giant (giant foxtail, Setaria faberii); assay: Test A preemergence foxtail, giant; details: 0 to 100 scale, 0 no effect, 100 complete control
Outline: as §1

[5] = test system: foxtail, giant (giant foxtail, Setaria faberii); assay: Test A postemergence foxtail, giant; details: 0 to 100 scale, 0 is no effect, 100 is complete control
Outline: as §1

[6] = test system: ragweed (common ragweed, Ambrosia elatior); assay: Test A postemergence ragweed; details: 0 to 100 scale, 0 is no effect, 100 is complete control
Outline: as §1

kochia (Kochia scoparia) [7] = assay: Test A preemergence kochia; details: 0 to 100 scale, 0 no effect, 100 complete control
Outline: as §1

kochia (Kochia scoparia) [8] = assay: Test A postemergence kochia; details: 0 to 100 scale, 0 is no effect, 100 is complete control
Outline: as §1

[9] = test system: wheat (Triticum aestivum); assay: Test A postemergence wheat; details: 0 to 100 scale, 0 is no effect, 100 is complete control
Outline: as §1

[10] = test system: sedge, umbrella (small-flower umbrella sedge, Cyperus difformis); assay: Test C flooded paddy test sedge, umbrella; details: Table C, Flood, scale 0 to 100
From the text: as §2

[11] = test system: barnyardgrass (Echinochloa crus-galli); assay: Test A preemergence barnyardgrass; details: 0 to 100 scale, 0 no effect, 100 complete control
Outline: as §1

rice (Oryza sativa) [12] = assay: Test C flooded paddy test rice; details: Table C, Flood, scale 0 to 100
From the text: as §2

[13] = test system: pigweed (Amaranthus retroflexus); assay: Test A postemergence pigweed; details: 0 to 100 scale, 0 is no effect, 100 is complete control
Outline: as §1

[14] = test system: pigweed (Amaranthus retroflexus); assay: Test A preemergence pigweed; details: 0 to 100 scale, 0 no effect, 100 complete control
Outline: as §1

[15] = test system: barnyardgrass (Echinochloa crus-galli); assay: Test C flooded paddy test barnyardgrass; details: Table C, Flood, scale 0 to 100
From the text: as §2

rice (Oryza sativa) [16] = assay: Test B flooded paddy test rice; details: Table B, Flood, 500 g ai/ha, scale 0 to 100
Outline: (§3)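 Water-applied paddy treatment: compound dosed into 3 cm flood on 2-leaf plants, read visually versus controls after 13 to 15 d.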

[17] = test system: ragweed (common ragweed, Ambrosia elatior); assay: Test A preemergence ragweed; details: 0 to 100 scale, 0 no effect, 100 complete control
Outline: as §1

[18] = test system: blackgrass (Alopecurus myosuroides); assay: Test A postemergence blackgrass; details: 0 to 100 scale, 0 is no effect, 100 is complete control
Outline: as §1

[19] = test system: barnyardgrass (Echinochloa crus-galli); assay: Test B flooded paddy test barnyardgrass; details: Table B, Flood, 500 g ai/ha, scale 0 to 100
Outline: as §3

[20] = test system: ryegrass, Italian (Italian ryegrass, Lolium multiflorum); assay: Test A preemergence ryegrass, Italian; details: 0 to 100 scale, 0 no effect, 100 complete control
Outline: as §1

[21] = test system: ducksalad (Heteranthera limosa); assay: Test B flooded paddy test ducksalad; details: Table B, Flood, 500 g ai/ha, scale 0 to 100
Outline: as §3

[22] = test system: galium (catchweed bedstraw, Galium aparine); assay: Test A postemergence galium; details: 0 to 100 scale, 0 is no effect, 100 is complete control
Outline: as §1

[23] = test system: sedge, umbrella (small-flower umbrella sedge, Cyperus difformis); assay: Test B flooded paddy test sedge, umbrella; details: Table B, Flood, 500 g ai/ha, scale 0 to 100
Outline: as §3

## O=C1NCCC(c2cccc(C(F)(F)F)c2)C1C(=O)Nc1cccc(Cl)c1F (racemic) [Compound 16]
[1]; 125 g ai/ha
  Plant response rating, Barnyardgrass: 70
[1]; 500 g ai/ha
  Plant response rating, Barnyardgrass: 90
[2]; 125 g ai/ha
  Plant response rating, Ryegrass, Italian: 0
[2]; 500 g ai/ha
  Plant response rating, Ryegrass, Italian: 20
Corn (Zea mays); 125 g ai/ha
  Plant response rating, Corn: 0
Corn (Zea mays); 500 g ai/ha
  Plant response rating, Corn: 30
[3]; 31 g ai/ha
  Plant response rating: 0
[3]; 62 g ai/ha
  Plant response rating: 0
[3]; 125 g ai/ha
  Plant response rating: 0
[3]; 250 g ai/ha
  Plant response rating: 0
[4]; 125 g ai/ha
  Foxtail, Giant plant response rating: 90
[4]; 500 g ai/ha
  Foxtail, Giant plant response rating: 90
[5]; 125 g ai/ha
  Plant response rating, Foxtail, Giant: 80
[5]; 500 g ai/ha
  Plant response rating, Foxtail, Giant: 80
[6]; 125 g ai/ha
  Plant response rating, Ragweed: 0
[6]; 500 g ai/ha
  Plant response rating, Ragweed: 0
Kochia (Kochia scoparia) [7]; 125 g ai/ha
  Kochia plant response rating: 30
Kochia (Kochia scoparia) [7]; 500 g ai/ha
  Kochia plant response rating: 50
Kochia (Kochia scoparia) [8]; 125 g ai/ha
  Plant response rating, Kochia: 0
Kochia (Kochia scoparia) [8]; 500 g ai/ha
  Plant response rating, Kochia: 20
[9]; 125 g ai/ha
  Plant response rating, Wheat: 20
[9]; 500 g ai/ha
  Plant response rating, Wheat: 30
[10]; 31 g ai/ha
  Plant response rating: 0
[10]; 62 g ai/ha
  Plant response rating: 0
[10]; 125 g ai/ha
  Plant response rating: 0
[10]; 250 g ai/ha
  Plant response rating: 0
[11]; 125 g ai/ha
  Barnyardgrass plant response rating: 70
[11]; 500 g ai/ha
  Barnyardgrass plant response rating: 90
Rice (Oryza sativa) [12]; 31 g ai/ha
  Plant response rating: 0
Rice (Oryza sativa) [12]; 62 g ai/ha
  Plant response rating: 0
Rice (Oryza sativa) [12]; 125 g ai/ha
  Plant response rating: 0
Rice (Oryza sativa) [12]; 250 g ai/ha
  Plant response rating: 0
[13]; 125 g ai/ha
  Plant response rating, Pigweed: 0
[13]; 500 g ai/ha
  Plant response rating, Pigweed: 0
[14]; 125 g ai/ha
  Pigweed plant response rating: 0
[14]; 500 g ai/ha
  Pigweed plant response rating: 0
[15]; 31 g ai/ha
  Plant response rating: 0
[15]; 62 g ai/ha
  Plant response rating: 0
[15]; 125 g ai/ha
  Plant response rating: 0
[15]; 250 g ai/ha
  Plant response rating: 0
Rice (Oryza sativa) [16]
  Plant response rating: 0
[17]; 125 g ai/ha
  Ragweed plant response rating: 0
[17]; 500 g ai/ha
  Ragweed plant response rating: 0
[18]; 125 g ai/ha
  Plant response rating, Blackgrass: 40
[18]; 500 g ai/ha
  Plant response rating, Blackgrass: 60
[19]
  Plant response rating: 0
[20]; 125 g ai/ha
  Ryegrass, Italian plant response rating: 20
[20]; 500 g ai/ha
  Ryegrass, Italian plant response rating: 40
[21]
  Plant response rating: 0
[22]; 125 g ai/ha
  Plant response rating, Galium: 20
[22]; 500 g ai/ha
  Plant response rating, Galium: 20
[23]
  Plant response rating: 0
